Columns and labels:
[1] = PXRD form stability of uncapped samples in a stability chamber; type: physicochemical
Protocol: Cabozantinib acesulfamate Form APO-I can be characterized by a PXRD diffractogram comprising, among other peaks, characteristic peaks, expressed in degrees 2θ (±0.2°), at 9.5°, 11.2° and 19.7°. Preferably, the PXRD diffractogram further comprises at least three peaks, expressed in degrees 2θ (±0.2°), selected from the group consisting of 9.1°, 10.2°, 12.7°, 15.9°, 17.4°, and 18.1°. More preferably, the PXRD diffractogram further comprises peaks, expressed in degrees 2θ (±0.2°), at 9.1°, 10.2°, 12.7°, 15.9°, 17.4°, and 18.1°.
PXRD diffractograms were recorded on a Bruker D8 Discover powder X-ray diffractometer (Bruker AXS LLC, Karlsruhe, Germany). The sample holder was oscillated along x and y axes during the measurement. The generator was a Incoatec Microfocus Source (IμS) Cu tube (λ=1.54060 Å) with a voltage of 50 kV and current of 1.00 mA, using a divergence slit of 0.1 mm and collimator of 2.0 mm. For each sample, one frame was collected using a still scan with a PILATUS3 R 100K-A detector at the distance of 294.2 mm from the sample. Raw data were evaluated using the program DIFFRAC.EVA (Bruker AXS LLC, Karlsruhe, Germany).

[2] = pH-dependent; at a pH>3; cited from earlier work
[3] = cited from earlier work

form stability ([1]; high temperature and high humidity) | Structure (SMILES) | change in the crystalline form (PXRD) ([1]; uncapped samples, 40° C./75% RH stability chamber, at least 4 weeks) | aqueous solubility [2] | permeability [3]
form stability | CC1=CC(=O)NS(=O)(=O)O1.COc1cc2nccc(Oc3ccc(NC(=O)C4(C(=O)Nc5ccc(F)cc5)CC4)cc3)c2cc1OC [cabozantinib acesulfamate Form APO-I, Cabozantinib Acesulfamate Form APO-I] | no change in the crystalline form occurred |  | 
 | COc1cc2nccc(Oc3ccc(NC(=O)C4(C(=O)Nc5ccc(F)cc5)CC4)cc3)c2cc1OC [cabozantinib, N-(4-(6,7-dimethoxyquinolin-4-yloxy)phenyl)-N′-(4-fluorophenyl)cyclopropane-1,1-dicarboxamide] |  | very low solubility | high permeability
